{"source": "patent US10959998B2", "about": "“Pharmaceutical use and pharmaceutical composition of pyrroloquinoline quinine, its derivatives and/or its salts” (priority 2015, dated 2021)", "key": {"[1]": {"test_system": "endometrial stromal cells", "assay": "Scratch test (scratch healing, cell migration)", "type": "cell-based, human", "conditions": "for scratch healing: P<0.05", "method": "Before the cells were plated, horizontal lines were scratched on the back of 24-well plate using a blade with the guide of a ruler. For each well, three evenly distributed lines which horizontally crossed the well were scratched. Two days after transfection, the cell fusion rate reached 90%. The wound were created by scratching on the cell layer with micropipette tip in a direction perpendicular to the lines on the back of the plate with the aid of ruler. During the operation, the micropipette tip should be kept perpendicular to the plate, and not tilt to one side. The cells were washed for three times with PBS to remove the exfoliated cells after being scratched, and 1640 culture medium supplemented with 2% FBS was added to the cells. The cells were cultured in an incubator at 37° C., in an air atmosphere containing 5% CO2. The cells were photographed in the same field of view at each indicated time point."}, "ectopic endometrial foci": {"test_system": "ectopic endometrial foci", "assay": "Endometriosis rat model, weight of transplanted foci", "type": "in vivo, SD rats"}, "[2]": {"test_system": "hydroxyl radical (.OH) in endometrial stromal cells", "assay": "Determination of hydroxyl radical (.OH) content", "type": "cell-based, human", "conditions": "18 h", "method": "Superoxide anion (O2.^−) assay kit was purchased from Nanjing Jiancheng Bioengineering Insitute; Hydroxyl free radical assay kit was purchased from Shanghai Xinyu Biological Technology Co., Ltd., Hydrogen Peroxide Assay Kit was purchased from Beyotime Biotechnology Research Institute. The cells were seeded in 6-well plate at 8×10^5 cells/well, and incubated for 24 h after the cells adhered to the plate. Three different concentrations of PQQ (30 nm, 300 nm and 3 μm) were added to the cultures respectively. The cells were incubated for additional 18 h. At the end of the treatment, the cultured cells were collected. 50 μL samples were added to each cell, followed by addition of 50 μL of antibody working solution. The sample was shaken to achieve a uniform mixture, and reacted at 37° C. for 30 min. The plates were then washed for four to five times. 100 μL of enzyme marker was added to each well. The resulting mixture was allowed to react for 20 min at 37° C. Coloration method: 50 μL of buffer liquid and 50 μL of substrate solution were added to each well in sequence. The mixture solution was gently shaken to achieve a uniform mixing, and coloured for 10 min in the dark at 37° C. […] The optical density at wavelength 560 nm was measured with microplate reader (Read the data in 20 min)."}}}
{"smiles": "O=C(O)c1cc(C(=O)O)c2c(n1)C(=O)C(=O)c1cc(C(=O)O)[nH]c1-2", "note": "[PQQ, pyrroloquinoline quinone]", "values": [{"measurement": "migration of endometrial cells (scratch healing)", "setting": "[1]; PQQ 30 nM, P>0.05", "value": "partially restrain the migration of the endometrial cells"}, {"measurement": "scratch healing", "setting": "[1]; PQQ 300 nM", "value": "significantly inhibit scratch healing"}, {"measurement": "scratch coverage rate lower than in the control group", "setting": "[1]; PQQ 3 μM, 72 h", "value": 42, "unit": "%"}, {"measurement": "scratch healing", "setting": "[1]; PQQ 3 μM", "value": "significantly inhibit scratch healing"}, {"measurement": "weight of ectopic endometrial foci compared with the control group", "setting": "ectopic endometrial foci; Example 5, rats, after 4 weeks treatment", "value": "evidently lower than that from the control group"}, {"measurement": "weight of cysts after treatment (mg) Mean ± SD", "setting": "ectopic endometrial foci; Example 5, rats, water feeding 4 week, PQQ 1 mg/kg, NAC 10 mg/kg, Resveratro 10 mg/kg, n=9", "value": "71.2 ± 23.2", "unit": "mg"}, {"measurement": "weight of ectopic cys after treatment (mg) Mean ± SD", "setting": "ectopic endometrial foci; Example 7, rats, 4 weeks in drinking water, PQQ (disodium salt) 1 mg/kg/day, NAC 10 mg/kg/day, P+N (H) 1+10, P+N (L) 0.2+5 mg/kg/day, n=12", "value": "69.5 ± 12.7", "unit": "mg"}, {"measurement": "weight of ectopic cyst compared with model control group", "setting": "ectopic endometrial foci; Example 7, rats, after 4 weeks treatment, PQQ as disodium salt", "value": "evidently lower than that in the model control group"}, {"measurement": "relative content of hydroxyl radical (.OH)", "setting": "[2]; PQQ 300 nM", "value": "significantly declined"}, {"measurement": "relative content of hydroxyl radical (.OH)", "setting": "[2]; PQQ 3 uM", "value": "significantly declined"}]}
